From patent US8802149B2, “Systems and processes for spray drying hydrophobic and hydrophilic components” (Novartis Pharma AG, priority 1996, dated 2014)

Assay: Solubility of drug and excipient in common organic solvent or cosolvent system
Assay type: physicochemical
Conditions: for solubility in Acetone (50%)/Water (50%) (by volume): solvent Acetone (50%)/Water (50%) by volume
Excerpt: According to the third aspect of the present invention. an organic solvent or cosolvent is selected in which both the hydrophobic drug or other component and the hydrophilic excipient or other component may be dissolved. […] The solvent must further be selected to leave minimum residual solvent in the spray dried process and/or be capable of being adequately removed from the spray dried product. The particular organic solvent or cosolvent selected will depend on the nature of the hydrophobic drug and the hydrophilic excipient.
Each of these formulations has been spray dried and tested as described in further detail in the Experimental section hereinafter.

| solubility in Acetone (50%)/Water (50%) (by volume) | solubility in DMSO (33%)/Acetone (67%) (by volume) (solvent DMSO (33%)/Acetone (67%) by volume) | solubility in Ethanol (solvent Ethanol) | solubility in Methanol (solvent Methanol) | Compound |
| --- | --- | --- | --- | --- |
| (adequate solubility) | (good solubility) | (adequate solubility) | (good solubility) | CCCC1O[C@@H]2C[C@H]3[C@@H]4CCC5=CC(=O)C=C[C@]5(C)[C@H]4[C@@H](O)C[C@]3(C)[C@]2(C(=O)CO)O1 (some centres unmarked) [Budesonide] |
| (adequate solubility) |  |  |  | OC[C@@H](O)[C@@H](O)[C@H](O)[C@H](O)CO [Mannitol] |
